From ChEMBL document CHEMBL2169860, “Design of a hypoxia-activated prodrug inhibitor of O6-alkylguanine-DNA alkyltransferase” (Bioorg Med Chem Lett, 2012) come the findings set out here.

Activity calls are given as the source filed them. The calls are words filed in the database; no cut-off is given here.

Data set [1] concerns EMT6. The data set can be described thus: Cytotoxicity against mouse EMT6 cells expressing human AGT assessed as cell survival fraction at 2 uM after 18 hrs by clonogenic assay. Type of data set: cell-based. Conditions: emt6, 18 h.
Data set [2] addresses T1, Methylated-DNA--protein-cysteine methyltransferase (Homo sapiens, UniProt P16455).
T1 sequence (P16455 whole entry): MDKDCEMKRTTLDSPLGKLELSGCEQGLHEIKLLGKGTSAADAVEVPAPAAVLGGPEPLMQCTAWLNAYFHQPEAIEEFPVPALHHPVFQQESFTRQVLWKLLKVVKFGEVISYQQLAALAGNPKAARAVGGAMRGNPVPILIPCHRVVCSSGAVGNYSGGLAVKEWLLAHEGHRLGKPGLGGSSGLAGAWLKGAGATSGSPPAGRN
Description: Inhibition of AGT in human HL60 cells assessed as AGT levels using [3H]AGT after 2 hrs

Data set [3] concerns EMT6. The data set can be described thus: Potentiation of laromustine-induced cytotoxicity against mouse EMT6 cells expressing human AGT assessed as cell survival fraction at 2 uM treated 2 hrs before laromustine addition measured after 18 hrs by clonogenic assay. Type of data set: functional, cell-based.
Data set [4] concerns EMT6. The data set can be described thus: Prodrug activation in mouse EMT6 cells assessed as 6-((3-((dimethylamino)methyl)benzyl)oxy)-9H-purin-2-amine level under oxic condition at 200 uM after 1 hr by HPLC analysis. Type of data set: cell-based. Particulars: emt6, 1 h.
Data set [5] relates to EMT6. Nature of the data set: Prodrug activation in mouse EMT6 cells assessed as 6-((3-((dimethylamino)methyl)benzyl)oxy)-9H-purin-2-amine level under hypoxic condition at 200 uM after 1 hr by HPLC analysis. The format is cell-based. Conditions: emt6, 1 h.
For data set [6], the system named is EMT6. Nature of the data set: Stability of the compound in mouse EMT6 cells assessed as parent compound level under oxic condition at 200 uM after 1 hr by HPLC analysis. The format is ADME, cell-based. Conditions: emt6, 1 h.
Data set [7] concerns EMT6. The data set can be described thus: Stability of the compound in mouse EMT6 cells assessed as parent compound level under hypoxic condition at 200 uM after 1 hr by HPLC analysis. Type of data set: ADME, cell-based. Conditions: emt6, 1 h.

The IC50 is the concentration needed to halve the response being measured. Read a high IC50 as lower potency. As for `CC(=O)NCc1cccc(COc2nc(N)nc3[nH]cnc23)c1`, in the data set with EMT6 [1], the Activity result is recorded as “Non-toxic”. The molecule further showed an IC50 in data set [2] of 86 nM. In addition, the outcome in the data set on EMT6 [3] was Active.

For `Nc1nc(OCc2ccccc2)c2nc[nH]c2n1`, in the data set with EMT6 [3], the result was Active.

For the molecule `NCc1cccc(COc2nc(N)nc3nc[nH]c23)c1`, in the data set with EMT6 [1], the Activity result is “Non-toxic”. Further, in the data set on EMT6 [3], the outcome was Active.

On to `CN(C)Cc1cccc(COc2nc(NC(=O)OC(C)(C)c3ccc([N+](=O)[O-])cc3)nc3[nH]cnc23)c1`, for which the Drug metabolism was 195.5 µM in the data set on EMT6 [4] and 149.6 µM with EMT6 [5].

For `CN(C)Cc1cccc(COc2nc(N)nc3[nH]cnc23)c1`, in the data set with EMT6 [1], the Activity entry is “Non-toxic”. Also, the IC50 in data set [2] came to 25 nM. Besides, the figures for the Stability with EMT6 [6] and in the data set with EMT6 [7] were 0.2 µM and 12.3 µM, respectively. Also, in the data set with EMT6 [3], the outcome was Active.

With `Nc1nc(OCc2ccccc2)c2[nH]cnc2n1` [6-O-BENZYLGUANINE], the Activity entry with EMT6 [1] is reported as “Non-toxic”.
